These results are taken from PubChem BioAssay (NCI).

Test systems include T-47D breast; MALME-3M melanoma; M14 melanoma; SK-MEL-2 melanoma; SK-OV-3 ovarian; CAKI-1 renal; 786-0 renal; NCI/ADR-RES ovarian; SK-MEL-5 melanoma; SN12C renal.
What all share (experiment): NCI anticancer screen, dose series, 48 h

Where “and” joins values, the source holds several entries; their conditions need not be identical. Identical values can stand only once.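 48-hour exposure; five concentrations; linearly interpolated endpoints. The concentration for 50% growth inhibition is given as GI50. TGI marks complete inhibition of growth.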 Where a SMILES comes first, the peptide text is derived from it. The star is where a group is joined. Boc = CC(C)(C)OC(=O)*

Take `CN(C)CCC(=O)C(=Cc1ccc(O)cc1)C(=O)CCN(C)C`: the GI50 was 47.7 µM in the test with T-47D breast; more than 100 µM in the test on MALME-3M melanoma; more than 100 µM with M14 melanoma; more than 100 µM with SK-MEL-2 melanoma; more than 100 µM in the test on SK-OV-3 ovarian; 16.4 µM in the test on CAKI-1 renal. Also, the GI50 in the test on 786-0 renal, with NCI/ADR-RES ovarian, with SK-MEL-5 melanoma and in the test with SN12C renal was more than 100 µM each time. For the same compound, the TGI with T-47D breast was more than 100 µM; with MALME-3M melanoma, more than 100 µM; in the test on M14 melanoma, more than 100 µM; in the test on SK-MEL-2 melanoma, more than 100 µM; with SK-OV-3 ovarian it was more than 100 µM; in the test with CAKI-1 renal, 32.5 µM. Besides, the TGI in the test with 786-0 renal, in the test on NCI/ADR-RES ovarian, in the test with SK-MEL-5 melanoma and in the test with SN12C renal was more than 100 µM in each case.

`COC(=O)C(C)NC(=O)C(CCSC)NC(=O)C(Cc1ccccc1)NC(=O)OC(C)(C)C` (stereo not drawn) (Boc-Phe-Met-Ala-OMe; configuration not given here): the TGI in the test with T-47D breast, with MALME-3M melanoma, in the test with M14 melanoma, with SK-MEL-2 melanoma, with SK-OV-3 ovarian and in the test on CAKI-1 renal was more than 100 µM in each case. For the same compound, the TGI in the test with 786-0 renal is more than 100 µM; with NCI/ADR-RES ovarian it was more than 100 µM; with SK-MEL-5 melanoma, more than 100 µM; in the test on SN12C renal it was 71.8 µg/mL and > 100 µM. In addition, the GI50 is 43.3 µg/mL in the test on 786-0 renal and 25.4 µg/mL in the test on SN12C renal.

`CN(C)CCSc1cc(-c2ccccc2)c2ccccc2n1`: the TGI in the test on T-47D breast is 34.4 µM; in the test with MALME-3M melanoma it was 26 µM; with M14 melanoma, 7.01 µM; in the test on SK-MEL-2 melanoma, 28.6 µM; with SK-OV-3 ovarian it was 15.9 µM; in the test on CAKI-1 renal, 30.9 µM. The TGI in the test on 786-0 renal stood at 25.2 µM; in the test with NCI/ADR-RES ovarian, 31.5 µM; in the test with SK-MEL-5 melanoma it was 4.7 µM; in the test on SN12C renal it was 32.2 µM.

As to `COc1ccc(-c2nsc3c2NC(=O)CC3c2cccc(OC)c2)cc1` (stereo not drawn), the GI50 in the test on T-47D breast is 0.871 µM; with MALME-3M melanoma, 2.32 µM; in the test on M14 melanoma, 0.613 µM; in the test with SK-MEL-2 melanoma it was 3.81 µM; in the test on SK-OV-3 ovarian, 1.45 µM; with CAKI-1 renal, 1.38 µM. In addition, the GI50 in the test with 786-0 renal is 12.5 µM; with NCI/ADR-RES ovarian, 0.42 µM; with SK-MEL-5 melanoma, 0.445 µM; with SN12C renal, 3.81 µM. The TGI in the test on T-47D breast is more than 100 µM; in the test on MALME-3M melanoma it was 66.1 µM; in the test on M14 melanoma, more than 100 µM; in the test on SK-MEL-2 melanoma it was 64.1 µM; in the test with SK-OV-3 ovarian it was 7.43 µM; in the test on CAKI-1 renal it was more than 100 µM. In addition, the TGI was more than 100 µM in the test on 786-0 renal, 2.27 µM in the test with NCI/ADR-RES ovarian, 17.5 µM in the test with SK-MEL-5 melanoma and more than 100 µM in the test on SN12C renal.

Regarding `COc1ccc2c(c1)c[n+](C)c1c3cc(OC)c(OC)cc3ccc21`, the GI50 in the test on T-47D breast is 1.95 µM and 5.02 µM; with MALME-3M melanoma, 3.71 µM and 12.4 µM; in the test on M14 melanoma it was 1.41 µM and 4.48 µM; with SK-MEL-2 melanoma it was 2.3 µM and 7.11 µM; in the test on 786-0 renal, 2.85 µM; in the test with SK-MEL-5 melanoma, 4.08 µM and 8.31 µM. In addition, the TGI is 4.93 µM and 26.4 µM in the test with T-47D breast; 14.9 µM and 26 µM with MALME-3M melanoma; 3.05 µM and 14.3 µM in the test on M14 melanoma; 6.12 µM and 16.9 µM in the test with SK-MEL-2 melanoma; 29.4 µM in the test with SK-OV-3 ovarian; 32.2 µM and 44 µM in the test on CAKI-1 renal. In addition, the TGI with 786-0 renal was 15.9 µM; in the test on NCI/ADR-RES ovarian it was more than 100 µM; in the test on SK-MEL-5 melanoma, 15.1 µM and 20.2 µM; in the test on SN12C renal, 3.53 µM and 8.51 µM.

Take `CC1(Br)Cc2ccccc2C1=O` (stereo not drawn): the GI50 in the test with T-47D breast is 4.18 µM; in the test on M14 melanoma, 1.08 µM; in the test on CAKI-1 renal it was 1.75 µM; with SK-MEL-5 melanoma it was 2.75 µM; with SN12C renal, 4.55 µM. For the same compound, the TGI in the test with T-47D breast was 21.2 µM; in the test with MALME-3M melanoma, 9.62 µM and 14.1 µM; in the test with M14 melanoma, 4.4 µM; in the test with SK-MEL-2 melanoma, 24.2 µM; in the test on SK-OV-3 ovarian, 65.9 µM; with CAKI-1 renal, 3.86 µM. In addition, the TGI in the test with 786-0 renal was 6.39 µM; in the test on NCI/ADR-RES ovarian, more than 100 µM; in the test with SK-MEL-5 melanoma, 12.5 µM; in the test with SN12C renal, 14.8 µM.

For the compound `O=C(/C=C/C=C/c1ccccc1)c1ccccc1`, the TGI in the test with T-47D breast is 48.2 µM; in the test on MALME-3M melanoma, 21.6 µM; in the test on M14 melanoma it was 33.6 µM; in the test with SK-MEL-2 melanoma it was 45.5 µM; in the test with SK-OV-3 ovarian, 70.4 µM; in the test on CAKI-1 renal, 31.4 µM. The TGI came to 27.4 µM with 786-0 renal, 27.1 µM in the test on NCI/ADR-RES ovarian, 30.2 µM with SK-MEL-5 melanoma and 29.7 µM in the test on SN12C renal.

In the case of `O=[N+]([O-])c1cccc2ccc(N/N=C/c3ccccc3O)nc12`, the GI50 is 1.07 µM in the test on T-47D breast; more than 100 µM in the test with MALME-3M melanoma; more than 100 µM with M14 melanoma; more than 100 µM in the test with SK-MEL-2 melanoma; more than 100 µM in the test on SK-OV-3 ovarian; more than 100 µM in the test on CAKI-1 renal. Moreover, the GI50 with 786-0 renal, in the test on NCI/ADR-RES ovarian, in the test on SK-MEL-5 melanoma and with SN12C renal was more than 100 µM each time. For the same compound, the TGI with T-47D breast, in the test on MALME-3M melanoma, with M14 melanoma, in the test on SK-MEL-2 melanoma, in the test with SK-OV-3 ovarian and in the test on CAKI-1 renal was more than 100 µM throughout. Also, the TGI in the test on 786-0 renal, with NCI/ADR-RES ovarian, in the test with SK-MEL-5 melanoma and in the test with SN12C renal was more than 100 µM throughout.

`CCc1c(Cl)c(C)cc(O)c1Cl`: the TGI is more than 100 µM in the test on T-47D breast; more than 100 µM in the test on MALME-3M melanoma; 92.5 µM in the test on M14 melanoma; 68.3 µM in the test on SK-MEL-2 melanoma; more than 100 µM in the test with SK-OV-3 ovarian; more than 100 µM in the test on CAKI-1 renal. Further, the TGI in the test on 786-0 renal was more than 100 µM; with NCI/ADR-RES ovarian it was more than 100 µM; with SK-MEL-5 melanoma, 28.6 µM; in the test on SN12C renal, 30.9 µM.

`Cc1ccc(Nc2oc(-c3ccccc3)nc2[P+](c2ccccc2)(c2ccccc2)c2ccccc2)cc1`: the GI50 was 0.43 µM in the test with T-47D breast; 0.459 µM in the test on MALME-3M melanoma; 0.728 µM in the test on M14 melanoma; 0.625 µM in the test with SK-MEL-2 melanoma; 1.58 µM in the test on SK-OV-3 ovarian; 1.22 µM in the test on CAKI-1 renal. Moreover, the GI50 with 786-0 renal was 1.1 µM; in the test on NCI/ADR-RES ovarian it was 1.48 µM; in the test with SK-MEL-5 melanoma, 0.493 µM; in the test with SN12C renal it was 0.888 µM. Besides, the TGI with T-47D breast was 2.33 µM; with MALME-3M melanoma it was 1.43 µM; with M14 melanoma, 2.11 µM; in the test on SK-MEL-2 melanoma it was 1.85 µM; with SK-OV-3 ovarian, 3.69 µM; with CAKI-1 renal it was 2.72 µM. The TGI came to 2.45 µM in the test on 786-0 renal, 3.1 µM in the test on NCI/ADR-RES ovarian, 1.4 µM in the test with SK-MEL-5 melanoma and 2.51 µM in the test on SN12C renal.
